{"source": "the RepoRT retention time repository"}
{"assay": "Waters ACQUITY UPLC BEH C18, 100 × 2.1 mm, 1.7 µm, 40 °C, 0.3 to 0.4 mL/min, estimated dead time 0.63 min; A: water + 0.1% formic acid; B: methanol + 0.1% formic acid; gradient (min/%B) 0/0.5 0.1/0.5 10/80 10.1/99.5 12/99.5", "conditions": "stereoisomer not certain", "units": {"LC retention time": "min"}}
{"compound": "CC1OC(OC2CCC3(C)C(CCC4(C)C3CC=C3C5CC(C)(C)CCC5(C(=O)O)CCC34C)C2(C)CO)C(O)C(OC2OC(CO)C(OC3OC(CO)C(O)C(O)C3O)C(O)C2O)C1O", "note": "(centres undefined)", "LC retention time": 6.92}
{"compound": "CC1(C)CC(O)C2(C)CCC3(C)C(=CCC4C5(C)CCC(OC6OC(C(=O)O)C(O)C(O)C6OC6OCC(O)C(O)C6O)C(C)(CO)C5CCC43C)C2C1", "note": "(centres undefined)", "LC retention time": 7.44}
{"compound": "CC(C)=CCCC(C)(O)C1CCC2(C)C1C(O)CC1C3(C)CCC(OC4OC(CO)C(O)C(O)C4O)C(C)(C)C3CCC12C", "note": "(centres undefined)", "LC retention time": 9.84}
{"compound": "NC(=O)CN1CC2CC(C1)c1cccc(=O)n1C2", "note": "(centres undefined)", "LC retention time": 2.18}
{"compound": "OCC1OC(Oc2cc(O)cc3[o+]c(-c4ccc(O)c(O)c4)c(OC4OC(CO)C(O)C(O)C4OC4OCC(O)C(O)C4O)cc23)C(O)C(O)C1O", "note": "(centres undefined)", "LC retention time": 2.49}
{"compound": "COc1ccc2c(c1)OC(OC1OC(CO)C(O)C(O)C1O)C(=O)N2OC", "note": "(centres undefined)", "LC retention time": 4.1}
{"compound": "CC1OC(OCC2OC(Oc3c(-c4ccc(O)c(O)c4)oc4cc(O)cc(O)c4c3=O)C(OC3OCC(O)C(O)C3O)C(O)C2O)C(O)C(O)C1O", "note": "(centres undefined)", "LC retention time": 3.65}
{"compound": "CN1CCc2cc3c(cc2C(=O)Cc2ccc4c(c2C1)OCO4)OCO3", "LC retention time": 4.36}
{"compound": "COc1ccc(-c2coc3cc(OC4OC(COC(=O)CC(=O)O)C(O)C(O)C4O)c(OC)cc3c2=O)cc1", "note": "(centres undefined)", "LC retention time": 5.38}
{"compound": "CC1OC(OC2C(O)C(CO)OC(Oc3c(-c4ccc(O)cc4)oc4cc(O)cc(O)c4c3=O)C2O)C(O)C(O)C1O", "note": "(centres undefined)", "LC retention time": 4.15}
{"compound": "COc1cc(C=CC(=O)NCCCCN)ccc1O", "LC retention time": 2.7}
{"compound": "CC1CCC2(C(=O)O)CCC3(C)C(=CCC4C5(C)CC(O)C(O)C(C)(C)C5CCC43C)C2C1C", "note": "(centres undefined)", "LC retention time": 9.89}
{"compound": "CCCCCC=CC=CC(CCCCCCCC(=O)O)OO", "note": "(centres undefined)", "LC retention time": 8}
{"compound": "COc1c(CO)c(OC2OC(COC3OCC(O)C(O)C3O)C(O)C(O)C2O)cc2c1C(=O)c1ccccc1C2=O", "note": "(centres undefined)", "LC retention time": 5.23}
{"compound": "COc1cc(C=CC(=O)OC2C(OC3C(Oc4ccc(-c5cc(=O)c6c(O)cc(O)cc6o5)cc4)OC(C(=O)O)C(O)C3O)OC(C(=O)O)C(O)C2O)ccc1O", "note": "(centres undefined)", "LC retention time": 4.76}
{"compound": "CC1OC(OC2C(O)COC(OC3C(C)OC(OC4C(OC(=O)C56CCC(C)(C)CC5C5=CCC7C8(C)CCC(OC9OC(CO)C(O)C(O)C9O)C(C)(CO)C8CCC7(C)C5(C)CC6O)OCC(O)C4O)C(O)C3O)C2O)C(O)C(O)C1O", "note": "(centres undefined)", "LC retention time": 5.79}
{"compound": "CC(C)C(=O)OC(CC(=O)[O-])C[N+](C)(C)C", "note": "(centres undefined)", "LC retention time": 2.48}
{"compound": "CCC(C)C(N)C(=O)NC(C(=O)O)C(C)CC", "note": "(centres undefined)", "LC retention time": 3.05}
{"compound": "CC1OC(OC2C(OC3C(OC4CCC5(C)C(CCC6(C)C5CC=C5C7CC(C)(C)CC(OC8OC(C)C(O)C(O)C8O)C7(C)CCC56C)C4(C)CO)OC(C(=O)O)C(O)C3O)OCC(O)C2O)C(O)C(O)C1O", "note": "(centres undefined)", "LC retention time": 5.86}
{"compound": "Cc1c2ccncc2c(C)c2c1[nH]c1ccccc12", "LC retention time": 4.93}
{"compound": "CCCCCCCCCCCCC(O)C(O)C(COC1OC(CC(C(=O)O)C(=O)O)C(O)C(O)C1O)NC(C)=O", "note": "(centres undefined)", "LC retention time": 4.79}
{"compound": "CS(=O)CCCCCCCC(N)C(=O)O", "note": "(centres undefined)", "LC retention time": 2.28}
{"compound": "COc1cc(CC2COC(=O)C2Cc2ccc(O)c(OC)c2)ccc1O", "note": "(centres undefined)", "LC retention time": 5.96}
{"compound": "CC1OC(OC2C(Oc3cc(O)c4c(c3)OC(c3ccc(O)cc3)CC4=O)OC(CO)C(O)C2O)C(O)C(O)C1O", "note": "(centres undefined)", "LC retention time": 4.38}
{"compound": "CCCCCC=CCC=CCC=CCCCCC(=O)OC(CO)COP(=O)(O)OCCN", "note": "(centres undefined)", "LC retention time": 8.73}
{"compound": "O=C1NCC(=O)N2CCCC12", "note": "(centres undefined)", "LC retention time": 2.06}
{"compound": "CC1OC(OCC2OC(Oc3c(-c4ccc(O)cc4)oc4cc(O)cc(O)c4c3=O)C(O)C(O)C2O)C(O)C(O)C1O", "note": "(centres undefined)", "LC retention time": 4}
{"compound": "NC(Cc1ccccc1)C(=O)O", "note": "(centres undefined)", "LC retention time": 2.3}
{"compound": "COc1cc2c(c(OC)c1OC)-c1c(cc(OC)c(OC)c1OC)CC(C)(O)C(C)C2", "note": "(centres undefined)", "LC retention time": 7.59}
{"compound": "COc1ccc(-c2coc3cc(OC4OC(COC(=O)CC(=O)O)C(O)C(O)C4O)ccc3c2=O)cc1", "note": "(centres undefined)", "LC retention time": 5.43}
{"compound": "COc1cc2ccc(=O)oc2cc1OC1OC(CO)C(O)C(O)C1O", "note": "(centres undefined)", "LC retention time": 3.11}
{"compound": "COc1cc(CC(CO)C(CO)Cc2ccc(O)c(OC)c2)ccc1O", "note": "(centres undefined)", "LC retention time": 4.76}
{"compound": "CC(C)=CCc1cc(C2COc3cc(O)c(CC=C(C)C)c(O)c3C2=O)ccc1O", "note": "(centres undefined)", "LC retention time": 9.45}
{"compound": "CC1=C(CCC(C)COC2OC(CO)C(O)C(O)C2OC2OC(C)C(O)C(O)C2O)OC2CC3C4CC=C5CC(O)CC(OC6OC(CO)C(O)C(O)C6O)C5(C)C4CCC3(C)C12", "note": "(centres undefined)", "LC retention time": 5.2}
{"compound": "CC1OC(Oc2c(-c3ccc(O)c(O)c3)oc3cc(OC4OC(CO)C(O)C(O)C4O)cc(O)c3c2=O)C(OC2OC(COC(=O)C=Cc3ccc(O)cc3)C(O)C(O)C2O)C(O)C1O", "note": "(centres undefined)", "LC retention time": 4.48}
{"compound": "COc1cc(-c2cc(=O)c3c(O)cc(OC4OC(COC(=O)CC(=O)O)C(O)C(O)C4O)cc3o2)cc(OC)c1O", "note": "(centres undefined)", "LC retention time": 4.91}
{"compound": "CC1(C)CCC2(C(=O)O)CCC3(C)C(=CCC4C5(C)CC(O)C(OC6OC(CO)C(OC7OC(CO)C(O)C(O)C7O)C(O)C6O)C(C)(CO)C5CCC43C)C2C1", "note": "(centres undefined)", "LC retention time": 7.01}
{"compound": "O=C(O)C1CCCN1C(=O)C1CCCN1", "note": "(centres undefined)", "LC retention time": 1.82}
{"compound": "O=C(C=Cc1ccc(O)cc1)OCC1OC(OC2C(c3c(O)cc4oc(-c5ccc(O)cc5)cc(=O)c4c3O)OC(CO)C(O)C2O)C(O)C(O)C1O", "note": "(centres undefined)", "LC retention time": 4.21}
{"compound": "CCC12CCCN3CCc4c(n(c5ccccc45)C(=O)C1)C32", "note": "(centres undefined)", "LC retention time": 4.65}
{"compound": "CCCCCC(=O)OC1C(OC2(CO)OC(CO)C(OC(C)=O)C2O)OC(CO)C(OC(=O)CCCC)C1OC(=O)CCCC", "note": "(centres undefined)", "LC retention time": 9.02}
{"compound": "CC(C)=CCCC(C)(OC1OC(COC2OC(CO)C(O)C2O)C(O)C(O)C1O)C1CCC2(C)C1C(O)CC1C3(C)CCC(OC4OC(CO)C(O)C(O)C4OC4OC(CO)C(O)C(O)C4O)C(C)(C)C3CCC12C", "note": "(centres undefined)", "LC retention time": 6.01}
{"compound": "O=C(OC1Cc2c(O)cc(O)cc2OC1c1cc(O)c(O)c(O)c1)c1cc(O)c(O)c(O)c1", "note": "(centres undefined)", "LC retention time": 3.46}
{"compound": "COc1ccc(-c2cc(=O)c3c(O)cc(OC4OC(CO)C(O)C(O)C4OC4OC(C)C(O)C(O)C4O)cc3o2)cc1O", "note": "(centres undefined)", "LC retention time": 4.47}
{"compound": "COc1cc(-c2cc(=O)c3c(O)cc(OC4OC(COC(=O)CC(=O)O)C(O)C(O)C4O)cc3o2)ccc1O", "note": "(centres undefined)", "LC retention time": 4.8}
{"compound": "CCCCCCC(O)CC=CCCCCCCCC(=O)O", "note": "(centres undefined)", "LC retention time": 10.1}
{"compound": "COc1cc(-c2[o+]c3cc(O)cc(O)c3cc2OC2OC(CO)C(O)C(O)C2O)cc(O)c1O", "note": "(centres undefined)", "LC retention time": 3.21}
{"compound": "OC1CCN2Cc3ccccc3N=C12", "note": "(centres undefined)", "LC retention time": 2.55}
{"compound": "CC1OC(OCC2OC(Oc3c(-c4ccc(O)cc4)oc4cc(OC5OC(C)C(O)C(O)C5O)cc(O)c4c3=O)C(O)C(O)C2O)C(O)C(O)C1O", "note": "(centres undefined)", "LC retention time": 3.4}
{"compound": "COc1ccc(-c2cc(=O)c3c(OC)cc(OC)c(-c4cc(-c5cc(=O)c6c(OC)cc(OC)cc6o5)ccc4OC)c3o2)cc1", "LC retention time": 7.39}
{"compound": "CC=C1CN2C3CC1C(CO)C2Cc1c3[nH]c2ccccc12", "note": "(centres undefined)", "LC retention time": 3.58}
{"compound": "CC1(C)CCC2(C(=O)OC3OC(CO)C(O)C(O)C3O)C(O)CC3(C)C(=CCC4C5(C)CCC(OC6OCC(O)C(OC7OC(CO)C(O)C(O)C7O)C6O)C(C)(C)C5CCC43C)C2C1", "note": "(centres undefined)", "LC retention time": 6.06}
{"compound": "COc1cc(CC2C(=O)OCC2Cc2ccc(OC)c(OC)c2)ccc1O", "note": "(centres undefined)", "LC retention time": 6.63}
{"compound": "COc1ccc(-c2coc3cc(O)c(CC=C(C)C)c(O)c3c2=O)cc1", "LC retention time": 8.02}
